Measurements: ChEMBL document CHEMBL2429717 (J Med Chem, 2013)

Tests used:
MDA-MB-435 [1] = assay: Cytotoxicity against human MDA-MB-435 cells assessed as growth inhibition; format: functional, cell-based
[2] = Induction of interphase microtubule depolymerization in rat A10 cells; format: cell-based
MDA-MB-435 [3] = assay: Cytotoxicity against human MDA-MB-435 cells assessed as growth inhibition after 72 hrs by SRB assay; format: functional, cell-based; settings: MDA-MB-435, 72 h
[4] = Induction of interphase microtubule depolymerization in rat A10 cells after 18 to 24 hrs by DAPI staining-based indirect immunofluorescence assay; format: cell-based
Tubulin = assay: Displacement of [3H]colchicine from tubulin (unknown origin); format: protein-complex assay, Homo sapiens
Jurkat = assay: Cytotoxicity against human Jurkat cells assessed as growth inhibition; format: functional, cell-based

| Structure (SMILES) | EC50 [2] [µM] | pEC50 [2] | EC50 [4] [µM] | pEC50 [4] | IC50 (MDA-MB-435 [1]; read-out: IC50) [µM] | IC50 (MDA-MB-435 [1]; read-out: pIC50 (converted)) [µM] | further results |
| --- | --- | --- | --- | --- | --- | --- | --- |
| COc1ccc(N(C)c2nc(N)nc3cc(C)[nH]c23)cc1 | – | – | 8.4 | 5.08 | – | – | IC50 (MDA-MB-435 [3]; read-out: IC50): 0.298 µM; IC50 (MDA-MB-435 [3]; read-out: pIC50 (converted)): 0.295 µM |
| CCOC(=O)c1cc(-c2ccc(OC)cc2)c(C(=O)c2ccc(OC)cc2)[nH]1 | 100 | 4 | – | – | 3 | 3.02 | – |
| COc1ccc(C(=O)c2[nH]c(C(=O)c3ccc(OC)cc3)c(-c3ccc(OC)cc3)c2-c2ccc(OC)cc2)cc1 | 500 | 3.3 | – | – | 100 | 100 | – |
| COc1cccc(N(C)c2nc(C)nc3c2C[C@@H](C)C3)c1 | 6.9 | 5.16 | – | – | 0.402 | 0.398 | – |
| COc1ccc(-c2c(Br)[nH]c(C(=O)OC(C)(C)C)c2Br)cc1OC | – | – | 25 | 4.6 | – | – | – |
| COc1ccc(-c2oc3c(OC)c(OC)c(OC)c(O)c3c(=O)c2OC)cc1O | – | – | – | – | – | – | Kd (Tubulin): 0.13 µM |
| Cc1nc2c(c(N(C)c3ccccc3)n1)C[C@H](C)C2 | 43 | 4.37 | – | – | 1.67 | 1.66 | – |
| COc1ccc(-c2c(Br)[nH]c(C(=O)OC(C)C)c2Br)cc1OC | – | – | 3.6 | 5.44 | – | – | – |
| CCOC(=O)c1c[nH]c(C(=O)c2ccc(OC)cc2)c1-c1ccc(OC)cc1 | 500 | 3.3 | – | – | 100 | 100 | – |
| CCOC(=O)c1c(-c2ccc(OC)c(OC)c2)c(-c2ccc(OC)c(OC)c2)cn1CCc1ccc(OC)c(OC)c1 | 500 | 3.3 | – | – | 100 | 100 | – |
| COc1ccc(N(C)c2nc(C)nc3cc[nH]c23)cc1 | – | – | 1.2 | 5.92 | – | – | IC50 (MDA-MB-435 [3]; read-out: IC50): 0.097 µM; IC50 (MDA-MB-435 [3]; read-out: pIC50 (converted)): 0.0955 µM |
| COc1ccc(Nc2nc(C)nc3c2C[C@@H](C)C3)cc1 | 520 | 3.28 | – | – | 51 | 51.3 | – |
| Cc1nc2c(c(N(C)c3ccccc3)n1)C[C@@H](C)C2 | 520 | 3.28 | – | – | 7.1 | 7.08 | – |
| COc1ccc(N(C)c2nc(C)nc3cc(C)[nH]c23)cc1 | – | – | 0.22 | 6.66 | – | – | IC50 (MDA-MB-435 [3]; read-out: IC50): 0.03 µM; IC50 (MDA-MB-435 [3]; read-out: pIC50 (converted)): 0.0302 µM |
| COc1ccc(N(C)c2ncnc3cc[nH]c23)cc1 | – | – | 1.4 | 5.85 | – | – | IC50 (MDA-MB-435 [3]; read-out: IC50): 0.193 µM; IC50 (MDA-MB-435 [3]; read-out: pIC50 (converted)): 0.195 µM |
| O=C1/C(=C/c2cc(Cl)cc(Cl)c2)Cc2cc(O)c(O)cc21 | – | – | – | – | – | – | IC50 (Jurkat; read-out: IC50): > 50 µM; IC50 (Jurkat; read-out: pIC50 (converted)): 100 µM |
| COc1ccc(-c2c(Br)[nH]c(C(=O)OCCCN(C)C)c2Br)cc1OC.Cl | – | – | 100 | 4 | – | – | – |
| COc1ccc2c(c1)CCCN2c1nc(C)nc2cc[nH]c12 | – | – | 0.23 | 6.64 | – | – | IC50 (MDA-MB-435 [3]; read-out: IC50): 0.043 µM; IC50 (MDA-MB-435 [3]; read-out: pIC50 (converted)): 0.0427 µM |
| COc1cc2c(c(N)c1OC)C(=O)/C(=C/c1cc(C)c(O)c(C)c1)C2 | – | – | – | – | – | – | IC50 (Jurkat; read-out: IC50): 0.001 µM; IC50 (Jurkat; read-out: pIC50 (converted)): 0.001 µM |
| O=c1c(O)c(-c2ccc(O)cc2O)oc2cc(O)cc(O)c12 [MORIN] | – | – | – | – | – | – | Kd (Tubulin): > 100 µM; pKd (Tubulin): 3.7 |
| COc1ccc(-c2oc3cc(O)c(OC)cc3c(=O)c2OC)cc1O | – | – | – | – | – | – | Kd (Tubulin): 6 µM |
| CCOC(=O)c1[nH]c(C(=O)c2ccc(OC)cc2)c(-c2ccc(OC)cc2)c1-c1ccc(OC)cc1 | 500 | 3.3 | – | – | 100 | 100 | – |
| COc1cccc(N(C)c2nc(C)nc3c2C[C@H](C)C3)c1 | 1.6 | 5.8 | – | – | 0.095 | 0.0955 | – |
| COc1ccc([C@H]2[C@H](c3cc(OC)c(OC)c(OC)c3)C(C)=NN2C(C)=O)cc1O | 4.5 | 5.35 | – | – | – | – | – |

More lines, main results first:

| EC50 [2] [µM] | pEC50 [2] | EC50 [4] [µM] | pEC50 [4] | Structure (SMILES) | IC50 (MDA-MB-435 [1]; read-out: IC50) [µM] | IC50 (MDA-MB-435 [1]; read-out: pIC50 (converted)) [µM] | further results |
| --- | --- | --- | --- | --- | --- | --- | --- |
| 7 | 5.15 | – | – | CCOC(=O)c1[nH]c(Br)c(-c2ccc(OC)cc2)c1Br | 0.843 | 0.851 | – |
| 14 | 4.85 | – | – | CCOC(=O)c1[nH]c(Br)c(-c2ccc(OC)c(F)c2)c1Br | 0.539 | 0.537 | – |
| – | – | 3.3 | 5.48 | CCCOC(=O)c1[nH]c(Br)c(-c2ccc(OC)c(OC)c2)c1Br | – | – | – |
| 21 | 4.68 | – | – | CCOC(=O)c1[nH]c(Br)c(-c2ccc3c(c2)OCCO3)c1Br | 4.4 | 4.37 | – |
| 71 | 4.15 | – | – | CCOC(=O)c1[nH]c(Br)c(-c2cc(OC)c(OC)c(OC)c2)c1Br | – | – | – |
| – | – | 14 | 4.85 | CCCCCCOC(=O)c1[nH]c(Br)c(-c2ccc(OC)c(OC)c2)c1Br | – | – | – |
| 18 | 4.75 | – | – | CCOC(=O)c1[nH]c(Br)c(-c2c[nH]c3ccccc23)c1Br | 2 | 2 | – |
| – | – | 5 | 5.3 | COC(=O)c1[nH]c(Br)c(-c2ccc(OC)c(OC)c2)c1Br | – | – | – |
| 27 | 4.57 | – | – | CCOC(=O)c1[nH]c(Br)c(-c2ccc(OC(F)(F)F)cc2)c1Br | 1.7 | 1.7 | – |
| 30 | 4.53 | – | – | CCOC(=O)c1[nH]c(Br)c(-c2ccc3c(c2)OCO3)c1Br | 1.8 | 1.82 | – |
| – | – | 50 | 4.3 | COc1ccc(-c2c(Br)[nH]c(C(=O)OCCCN(C)C)c2Br)cc1OC | – | – | – |
| – | – | 100 | 4 | COc1ccc(OC(=O)c2[nH]c(Br)c(-c3ccc(OC)c(OC)c3)c2Br)cc1 | – | – | – |
| 9.9 | 5 | – | – | CCOC(=O)c1[nH]c(Br)c(-c2ccc(Cl)c(Cl)c2)c1Br | 0.806 | 0.813 | – |
| 2.4 | 5.62 | – | – | CCOC(=O)c1[nH]c(Br)c(-c2cccc(OC)c2)c1Br | 0.633 | 0.631 | – |
| – | – | 33 | 4.48 | CCCCOC(=O)c1[nH]c(Br)c(-c2ccc(OC)c(OC)c2)c1Br | – | – | – |
| – | – | 50 | 4.3 | COc1ccc(-c2c(Br)[nH]c(C(=O)OCCN(C)C)c2Br)cc1OC | – | – | – |
| 14 | 4.85 | – | – | CCOC(=O)c1[nH]c(Br)c(-c2cc(OC)c(OC)cc2Br)c1Br | 2.6 | 2.63 | – |
| 500 | 3.3 | – | – | CCOC(=O)c1[nH]cc(-c2ccc(OC)cc2)c1-c1ccc(OC)cc1 | – | – | – |
| 19 | 4.73 | – | – | CCOC(=O)c1[nH]c(Br)c(-c2ccc(SC)cc2)c1Br | 0.626 | 0.631 | – |
| 7 | 5.15 | – | – | CCOC(=O)c1[nH]c(Br)c(-c2cccc3ccccc23)c1Br | 3.2 | 3.24 | – |
| 83 | 4.08 | – | – | CCOC(=O)c1[nH]c(Br)c(-c2ccc(Cl)cc2)c1Br | – | – | – |
| – | – | 100 | 4 | COc1ccc(-c2c(Br)[nH]c(C(=O)OCCN(C)C)c2Br)cc1OC.Cl | – | – | – |
| – | – | 100 | 4 | COc1ccc(-c2c(Br)[nH]c(C(=O)OCc3ccccc3)c2Br)cc1OC | – | – | – |
| 33 | 4.48 | – | – | CCOC(=O)c1[nH]c(Br)c(-c2ccc3cc(OCC)ccc3c2)c1Br | 2 | 2 | – |
| 500 | 3.3 | – | – | CCOC(=O)c1[nH]c(C(=O)c2ccc(OC)cc2)c(-c2ccc(OC)cc2)c1Br | 100 | 100 | – |
| 94 | 4.03 | – | – | CCOC(=O)c1[nH]c(Br)c(-c2ccc(Br)cc2)c1Br | – | – | – |
| 167 | 3.78 | – | – | CCOC(=O)c1[nH]c(Br)c(-c2ccccc2)c1Br | – | 10.2 | – |
| 75 | 4.12 | – | – | CCOC(=O)c1[nH]c(Br)c(-c2ccc(C)cc2)c1Br | – | 2.24 | – |
